Reference: paper PMC3637861 (Journal of muscle research and cell motility, 2013)

Target: Recombinant chicken cardiac troponin C (cTnC) (Gallus gallus, UniProt P09860)
Experiment: intrinsic tyrosine fluorescence quenching titration, hyperbolic plus linear fit
Assay type: binding

Kd: 65 µM
SMILES: O=C(O[C@@H]1Cc2c(O)cc(O)cc2O[C@@H]1c1cc(O)c(O)c(O)c1)c1cc(O)c(O)c(O)c1 [EGCg]
